Measured values: patent publication US6759397B2, “Ginsenoside chemotherapy” (The University of British Columbia, priority 2000, dated 2004)
Where two headings read alike, the source gives them in different places.

How the values were obtained:
[1] = test system: MDA435/LCC6M cells
Description: (§1) Human breast cancer cells MDA435/LCC6 cells, both wild-type (MDA435/LCC6W) or a drug resistant strain expressing a transfected multidrug resistant gene encoding P-glycoprotein (MDA435/LCC6M), were incubated with 20 μg/ml or 30 μg/ml of Rh2 in the presence of paclitaxel at various concentrations. Viable cells were counted 24 hrs after treatment.

[2] = test system: human prostate cancer cells LNCaP; assay: Cytotoxicity of Rh2 with mitoxantrone or paclitaxel, cellular viability of LNCaP cells; assay type: cell-based
Excerpt: In one aspect, the invention provides therapeutically synergistic effects of Rh2 with chemotherapeutic compounds.

[3] = test system: Mesothelioma cells (MS-1 cells); assay: Viability of non-Pgp multidrug resistant mesothelioma cells, Rh2 with cisplatin or paclitaxel; assay type: cell-based
[4] = test system: MDA435/LCC6M cells; assay: Viable cell count, Rh2 with paclitaxel, multidrug resistant breast cancer cells expressing P-glycoprotein; conditions: for IC50: Homo sapiens, MDA435, 24 h
Description: as §1

[5] = test system: MDA435/LCC6W cells; assay: Viable cell count, Rh2 with paclitaxel, wild-type breast cancer cells; assay type: cell-based; conditions: Homo sapiens, L6W (wild-type MDA435/LCC6W)
Description: as §1

| SMILES | Effect of Rh2 on cytotoxicity of paclitaxel [1] | Cytotoxicity of Rh2 alone ([2]; 20 μg/ml Rh2, LNCaP) | Effect of Rh2 on cytotoxicity of paclitaxel ([2]; 20 μg/ml Rh2, particularly 0.1 nM and 1 nM paclitaxel, LNCaP) | Effect of Rh2 on cytotoxicity of mitoxantrone ([2]; 20 μg/ml Rh2, wide range of mitoxantrone concentrations, LNCaP) | Synergistic effect of Rh2 with cisplatin ([3]; 20 μg/ml Rh2, various cisplatin concentrations) | Synergistic effect of Rh2 with paclitaxel ([3]; 20 μg/ml Rh2, various paclitaxel concentrations) | Effect of Rh2 alone on the cells ([4]; MDA435/LCC6M, 20 or 30 μg/ml Rh2, 24 hrs) | IC50 ([4]; read-out: Calculated IC50 of paclitaxel, Pac. + 20 μg/ml Rh2) [nM] | IC50 ([4]; read-out: Calculated IC50 of paclitaxel, Pac. + 30 μg/ml Rh2) [nM] | IC50 ([4]; read-out: Calculated IC50 of paclitaxel, Paclitaxel alone) [nM] | Paclitaxel concentration at which cytotoxicity was shown in the presence of Rh2 ([4]; MDA435/LCC6M, with Rh2, as low as) [nM] | IC50 ([5]; no Rh2, viable cells counted 24 hrs after treatment, read-out: Calculated IC50 of paclitaxel, Paclitaxel alone) [nM] | IC50 ([5]; with 20 μg/ml Rh2, 24 hrs, read-out: Calculated IC50 of paclitaxel, Pac. + 20 μg/ml Rh2) [nM] | IC50 ([5]; with 30 μg/ml Rh2, 24 hrs, read-out: Calculated IC50 of paclitaxel, Pac. + 30 μg/ml Rh2) [nM] |
| --- | --- | --- | --- | --- | --- | --- | --- | --- | --- | --- | --- | --- | --- | --- |
| CC(C)=CCC[C@](C)(O)[C@H]1CC[C@]2(C)[C@@H]1[C@H](O)C[C@@H]1[C@@]3(C)CC[C@H](O[C@@H]4O[C@H](CO)[C@@H](O)[C@H](O)[C@H]4O)C(C)(C)[C@@H]3CC[C@]12C [Rh2] | unexpectedly and significantly enhanced by Rh2 | little or no significant cytotoxicity alone | added significantly to the cytotoxicity of paclitaxel | added significantly to the cytotoxicity of mitoxatron | significant | significant | little or no effect on the cells |  |  |  |  |  |  |  |
| CC(=O)O[C@H]1C(=O)[C@@]2(C)[C@H]([C@H](OC(=O)c3ccccc3)[C@]3(O)C[C@H](OC(=O)[C@H](O)[C@@H](NC(=O)c4ccccc4)c4ccccc4)C(C)=C1C3(C)C)[C@]1(OC(C)=O)CO[C@@H]1C[C@@H]2O [Paclitaxel] |  |  |  |  |  |  |  | 0.15 | < 0.03 | 631 | 0.1 | 248 | 75 | 25 |
